Measurements from ChEMBL document CHEMBL1136353, “Synthesis of novel fluorescent probes for the molecular chaperone Hsp90” (Bioorg Med Chem Lett, 2003).

Target: Heat shock protein HSP90 (Homo sapiens, UniProt P07900+P08238)
Test: Binding affinity towards Heat shock protein HSP 90-alpha inhibitor
Format: protein assay

Kds | Structure (SMILES)
23.3 nM | CO[C@H]1/C=C\C=C(/C)C(=O)NC2=CC(=O)C(NCCCCCCO/C(S)=N\c3ccc(-c4c5ccc(=O)cc-5oc5cc(O)ccc45)c(C(=O)O)c3)=C(C[C@@H](C)C[C@H](OC)[C@@H](O)[C@@H](C)/C=C(\C)[C@@H]1OC(N)=O)C2=O
33.8 nM | CO[C@H]1/C=C\C=C(/C)C(=O)NC2=CC(=O)C(NCCNC(=O)CCC3=N/C(=C\c4c(C)cc(C)n4B(F)F)C=C3)=C(C[C@@H](C)C[C@H](OC)[C@@H](O)[C@@H](C)/C=C(\C)[C@@H]1OC(N)=O)C2=O
